Data: the supplement of paper PMC10307832

What was measured:
Test in all cases: relative viability (nuclei count vs DMSO), 5 days (fraction); higher = more cells survive
Idelalisib + Lapatinib = compound: CC[C@H](Nc1ncnc2[nH]cnc12)c1nc2cccc(F)c2c(=O)n1-c1ccccc1 [Idelalisib] + CS(=O)(=O)CCNCc1ccc(-c2ccc3ncnc(Nc4ccc(OCc5cccc(F)c5)c(Cl)c4)c3c2)o1 [Lapatinib] (partner 2 µM)
Outline: (§1)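 Nuclei were stained with Hoechst during a one-step fixation (final 0.05% Triton X-100, 1% formaldehyde, 1 ug/ml Hoechst) carried out 5 days after dosing, then counted on 4× images. The cells, lung cancer lines in 1536-well plates, had been dosed by pin tool the day after seeding with one drug alone or a fixed anchor-drug dose plus five library-drug doses (not always all listed) in √10 steps. Relative viability is the nuclei count in treated wells divided by that in vehicle wells, and each value is the median of duplicate plates.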

Idelalisib + Decitabine = compound: CC[C@H](Nc1ncnc2[nH]cnc12)c1nc2cccc(F)c2c(=O)n1-c1ccccc1 [Idelalisib] + Nc1ncn([C@H]2C[C@H](O)[C@@H](CO)O2)c(=O)n1 [Decitabine] (partner 2 µM)
Outline: as §1

Pemetrexed + Trametinib = compound: Nc1nc2[nH]cc(CCc3ccc(C(=O)N[C@@H](CCC(=O)O)C(=O)O)cc3)c2c(=O)[nH]1 [Pemetrexed] + CC(=O)Nc1cccc(-n2c(=O)n(C3CC3)c(=O)c3c(Nc4ccc(I)cc4F)n(C)c(=O)c(C)c32)c1 [Trametinib] (partner 0.02 µM)
Outline: as §1

Pemetrexed + Crizotinib = compound: Nc1nc2[nH]cc(CCc3ccc(C(=O)N[C@@H](CCC(=O)O)C(=O)O)cc3)c2c(=O)[nH]1 [Pemetrexed] + C[C@@H](Oc1cc(-c2cnn(C3CCNCC3)c2)cnc1N)c1c(Cl)ccc(F)c1Cl [Crizotinib] (partner 1 µM)
Outline: as §1

Row | Cell Line | relative viability (Idelalisib + Lapatinib; first compound 0.04 µM) | relative viability (Idelalisib + Lapatinib; first compound 0.1265 µM) | relative viability (Idelalisib + Lapatinib; first compound 0.4 µM) | relative viability (Idelalisib + Lapatinib; first compound 1.265 µM) | relative viability (Idelalisib + Lapatinib; first compound 4 µM) | relative viability (Idelalisib + Decitabine; first compound 0.04 µM) | relative viability (Idelalisib + Decitabine; first compound 0.1265 µM) | relative viability (Idelalisib + Decitabine; first compound 0.4 µM) | relative viability (Idelalisib + Decitabine; first compound 1.265 µM) | relative viability (Idelalisib + Decitabine; first compound 4 µM) | relative viability (Pemetrexed + Trametinib; first compound 0.002 µM) | relative viability (Pemetrexed + Trametinib; first compound 0.006325 µM) | relative viability (Pemetrexed + Trametinib; first compound 0.02 µM) | relative viability (Pemetrexed + Trametinib; first compound 0.06325 µM) | relative viability (Pemetrexed + Trametinib; first compound 0.2 µM) | relative viability (Pemetrexed + Crizotinib; first compound 0.002 µM) | relative viability (Pemetrexed + Crizotinib; first compound 0.006325 µM) | relative viability (Pemetrexed + Crizotinib; first compound 0.02 µM) | relative viability (Pemetrexed + Crizotinib; first compound 0.06325 µM) | relative viability (Pemetrexed + Crizotinib; first compound 0.2 µM)
1 | COR-L 105 | 0.385 | 0.353 | 0.294 | 0.374 | 0.362 | 0.567 | 0.667 | 0.513 | 0.615 | 0.642 | 0.442 | 0.423 | 0.47 | 0.479 | 0.453 | 0.78 | 0.75 | 0.895 | 0.88 | 0.75
2 | NCI-H1944 | 0.969 | 0.857 | 0.637 | 0.826 | 0.668 | 0.468 | 0.452 | 0.433 | 0.431 | 0.429 | 0.354 | 0.449 | 0.45 | 0.407 | 0.38 | 0.911 | 1.02 | 1.19 | 1.11 | 1
3 | NCI-H2009 | 0.944 | 1.04 | 0.883 | 0.572 | 0.93 | 0.4 | 0.35 | 0.322 | 0.405 | 0.381 | 0.303 | 0.256 | 0.316 | 0.249 | 0.27 | 1.01 | 1.04 | 1.01 | 1.06 | 1.04
4 | NCI-H1437 | 0.764 | 0.909 | 0.734 | 0.929 | 0.672 | 0.55 | 0.59 | 0.62 | 0.635 | 0.55 | 0.362 | 0.473 | 0.424 | 0.382 | 0.285 | 0.948 | 0.854 | 0.965 | 0.586 | 0.281
